How the values were obtained:
[1] = tested on: bone resorption activities by PTH; assay type: in vivo, rat (Wister male); conditions: sc, 10 mg/kg; for Serum calcium value, 1 day value (b) / Serum increased calcium value [(b)-(a)]: 24 h
Description: Now, the test method with respect to the antihypercalcemic activities of the compounds of the present invention by using rats having the thyroid gland and the pala thyroid gland removed, and the results will be described.
Wister male rats of 7 weeks old (150-170 g) were anesthetized with nenbutal, and the thyroid gland and the pala thyroid gland were surgically removed by the method disclosed by Russel R. G. et al, Calcif. Tissue, Res., 183-196 (1970) and by Muehlbauer R. C. et al, Mineral Electrolyte Metab., 5 296-300 (1981). After the operation, the rats were fed on normal food for three days, and on the fourth day, the blood was sampled, and the serum calcium value was measured by an atomic absorption method, whereby rats having the serum calcium value lowered to a level of from 5 to 7 mg/de were selected.
These rats were divided into groups so that each group consisted of five rats. A compound of the present invention was dissolved in a 0.5% CMC aqueous solution or physiological saline and adjusted for administration at a dose of 10 mg/kg. Such a solution was subcutaneously administered at a dose of 2 ml/kg once a day for three days. To a control group, a 0.5% CMC aqueous solution or physiological saline was administered. Next day, 0.2 ml of the blood was sampled, and the serum calcium value was measured in the same manner as described above (this value was designated as 0 day value (a)).
At the same time, an osmotic pump (2001 Model, manufactured by Alza Co.) having parathyroid hormone (PTH) (50 μg/0.2 ml physiological saline) sealed in, was subcutaneously embedded on the back of each rat, and 24 hours later, the blood was sampled from the aorta abdominalis, whereupon the serum calcium value was measured (this value was designated as one day value (b)).
From the obtained results, the serum increased calcium value was calculated by the following formula: [formula]

[2] = toxicity, LD50, subcutaneous injection to mice; conditions: mouse, in vivo, sc, ddy mice male five weeks old (22-27 g)
Method: LD50 of the compounds of Examples 2, 14, 16, 18, 33, 34 and 58 was at least 100 mg/kg when subcutaneously injected to ddy mice (male) of five weeks old (22-27 g).

Row | SMILES | Serum calcium value, 0 day value (a) [1] [µg/mL] | Serum calcium value, 1 day value (b) [1] [µg/mL] | Serum increased calcium value [(b)-(a)] [1] [µg/mL] | LD50 [2] [mg/kg]
1 | NCCC(O)(P(=O)(O)O)P(=O)(O)O [APD, reference compound] | 60.2 ± 8.32 | 83.6 ± 3.13 | 23.4 ± 6.50 | 
2 | O=P(O)(O)C(N1CCC2(CCCCC2)CC1)P(=O)(O)O [Example 2, 3-azaspiro[5.5]undecan-3-yl-methylene bisphosphonic acid] | 47.2 ± 2.22 | 109.0 ± 8.47 | 61.8 ± 7.38 | ≥ 100
3 | O=P(O)(O)C(N1CCC2(CC1)CC2(F)F)P(=O)(O)O [Example 4, 1,1-difluoro-6-azaspiro[2.5]octan-6-yl-methylene bisphosphonic acid] | 51.4 ± 7.23 | 128.7 ± 3.31 | 77.3 ± 6.37 | 
4 | O=P(O)(O)C(N1CCC2(CCCC2)CC1)P(=O)(O)O [Example 6, 8-azaspiro[4.5]decan-8-yl-methylene bisphosphonic acid] | 40.3 ± 3.61 | 90.6 ± 5.30 | 50.3 ± 6.25 | 
5 | O=P(O)(O)C(N1CCCC12CCCCC2)P(=O)(O)O [Example 8, 1-azaspiro[4.5]decan-1-yl-methylene bisphosphonic acid] | 47.1 ± 4.17 | 109.8 ± 2.07 | 62.7 ± 4.27 | 
6 | O=P(O)(O)C(N1CCCCC12CCCCC2)P(=O)(O)O [Example 10, 1-azaspiro[5.5]undecan-1-yl-methylene bisphosphonic acid] | 45.5 ± 5.54 | 108.8 ± 6.80 | 63.3 ± 1.91 | 
7 | O=P(O)(O)C(N1CCCC2(CCCCC2)C1)P(=O)(O)O [Example 12, 2-azaspiro[5.5]undecan-2-yl-methylene bisphosphonic acid] | 53.9 ± 7.82 | 138.9 ± 4.29 | 85.0 ± 6.27 | 
8 | C=C1CCN(C(P(=O)(O)O)P(=O)(O)O)CC1 [Example 14, 4-methylidenepiperidinomethylene bisphosphonic acid] | 60.99 ± 2.67 | 68.34 ± 2.94 | 7.35 ± 2.65 | ≥ 100
9 | CCCCCC=C1CCN(C(P(=O)(O)O)P(=O)(O)O)CC1 [Example 16, 4-hexylidenepiperidinomethylene bisphosphonic acid] | 52.12 ± 1.86 | 53.30 ± 4.89 | 1.18 ± 3.70 | ≥ 100
10 | CC=C1CCN(C(P(=O)(O)O)P(=O)(O)O)CC1 [Example 18, 4-ethylidenepiperidinomethylene bisphosphonic acid] | 61.34 ± 7.49 | 66.05 ± 6.68 | 4.72 ± 4.05 | ≥ 100
11 | CCC=C1CCN(C(P(=O)(O)O)P(=O)(O)O)CC1 [Example 20] | 63.02 ± 3.75 | 71.73 ± 6.32 | 8.71 ± 2.72 | 
12 | CCCC=C1CCN(C(P(=O)(OCC)OCC)P(=O)(OCC)OCC)CC1 [Example 21, 4-Butylidenepiperidinomethylene bisphosphonic acid ethyl ester] | 60.87 ± 5.61 | 65.92 ± 7.91 | 5.05 ± 3.19 | 
13 | CCOP(=O)(OCC)C(N1CCC(Cc2ccccc2)CC1)P(=O)(OCC)OCC [Example 27, 4-Benzylpiperidinomethylene bisphosphonic acid ethyl ester] | 66.2 ± 3.13 | 79.5 ± 2.77 | 13.3 ± 1.62 | 
14 | CCOP(=O)(OCC)C(N1CCC(C(N)=O)(N2CCCCC2)CC1)P(=O)(OCC)OCC [Example 29, 4-Carbamoyl-4-(1-piperidyl)piperidinomethylene bisphosphonic acid ethyl ester] | 66.7 ± 5.91 | 74.8 ± 1.82 | 8.1 ± 4.35 | 
15 | CCOP(=O)(OCC)C(N1CCC(F)(F)CC1)P(=O)(OCC)OCC [Example 31, 4,4-Difluoropiperidinomethylene bisphosphonic acid ethyl ester] | 65.3 ± 3.15 | 73.1 ± 3.96 | 7.8 ± 3.57 | 
16 | CC1(Cl)CCN(C(P(=O)(O)O)P(=O)(O)O)CC1 [Example 33, 4-Chloro-4-methylpiperidinomethylene bisphosphonic acid] | 52.1 ± 1.73 | 53.3 ± 4.91 | 1.2 ± 3.77 | ≥ 100
17 | CC1(O)CCN(C(P(=O)(O)O)P(=O)(O)O)CC1 [Example 34, 4-Hydroxy-4-methylpiperidinomethylene bisphosphonic acid] | 61.0 ± 2.82 | 68.3 ± 2.87 | 7.4 ± 2.69 | ≥ 100
18 | CCCCCCC1(O)CCN(C(P(=O)(O)O)P(=O)(O)O)CC1 [Example 35, 4-Hexyl-4-hydroxypiperidinomethylene bisphosphonic acid] | 70.8 ± 3.85 | 84.5 ± 6.73 | 13.7 ± 4.13 | 
19 | CCOP(=O)(OCC)C(N1CCC(C)(F)CC1)P(=O)(OCC)OCC [Example 37, 4-Fluoro-4-methylpiperidinomethylene bisphosphonic acid ethyl ester] | 53.8 ± 2.10 | 55.7 ± 3.63 | 1.9 ± 3.10 | 
20 | CC(C)(C)C1(O)CCN(C(P(=O)(O)O)P(=O)(O)O)CC1 [Example 54, 4-t-Butyl-4-hydroxypiperidinomethylene bisphosphonic acid] | 67.3 ± 2.83 | 77.0 ± 3.74 | 9.7 ± 5.32 | 
21 | CC1(C)CCCN(C(P(=O)(O)O)P(=O)(O)O)C1 [Example 58, 3,3-dimethylpiperidinomethylene bisphosphonic acid] | 50.8 ± 2.35 | 130.4 ± 7.57 | 79.6 ± 7.07 | ≥ 100
22 | CC1(C)CCN(C(P(=O)(O)O)P(=O)(O)O)CC1 [Example 60, 4,4-dimethylpiperidinomethylene bisphosphonic acid] | 46.5 ± 8.69 | 110.4 ± 1.59 | 63.9 ± 2.15 | 

— US5350743A, “Bisphosphonic acid derivatives, as bone resorption inhibitors” (Kaken Pharmaceutical Co., Ltd., priority 1991, dated 1994)
